pIC50: −log10 of the molar value.
Assays:
[1] = tested on: MDA-MB-231 (breast); test: In vitro cytotoxic activity (MTT) assay, MDA-MB-231; assay type: cell-based; conditions: Homo sapiens; MDA-MB-231 (breast) cells, exposed for 96 hours; read-out: Cytotoxicity activity IC50 (50% inhibition of cell proliferation)
Procedure: (§1) Compounds 1-16 were screened for their in vitro cytotoxic activity utilizing a 3-(4,5-dimethyl-thiazol-2-yl)-2,5-diphenyltetrazolium bromide (MTT) assay against selected cancer human cell lines consisting of PC3 (prostate), HCT116 (colon), A375 (melanoma), H1299 (lung), MIAPaCa-2 (pancreas), HL60 (leukemia), MCF7 (breast), MDA-MB-231 (breast) (T. Mosmann, J. Immunol. Meth., 1983, 65, 55-63). The cells were cultured at 37° C. in RMPI1640 medium supplemented with 10% fetal bovine serum, 50 IU/mL penicillin, and 50 μg/mL streptomycin in a 5% CO2 incubator. All cells were sub-cultured 3 times/week by trypsinisation. Viable cells were seeded and allowed to adhere for 12 hours before a test drug was added in 96-well plates at an initial density of 1.0×10^5 cells/mL. Tumor cell lines were separately exposed to various concentrations of the tested compounds followed by incubation at a temperature of 37° C. during 96 hours inside a medium of fresh RMPI 1640. Cells were subsequently incubated at 37° C. using MTT at 0.5 mg/mL during 4 hours. After removal of supernatant, formazan crystals were dissolved in isopropanol and the optical density was measured at 570 nm. CX-4945 was used as a positive control.

[2] = tested on: PC3 (prostate); test: In vitro cytotoxic activity (MTT) assay, PC3; assay type: cell-based; conditions: Homo sapiens, Prostate cell; PC3 (prostate) cells, exposed for 96 hours; read-out: Cytotoxicity activity IC50 (50% inhibition of cell proliferation)
Procedure: as §1

[3] = tested on: A375 (melanoma); test: In vitro cytotoxic activity (MTT) assay, A375; assay type: cell-based; conditions: Homo sapiens, A-375; A375 (melanoma) cells, exposed for 96 hours; read-out: Cytotoxicity activity IC50 (50% inhibition of cell proliferation)
Procedure: as §1

[4] = tested on: HL60 (leukemia); test: In vitro cytotoxic activity (MTT) assay, HL60; assay type: cell-based; conditions: Homo sapiens, HL-60; HL60 (leukemia) cells, exposed for 96 hours; read-out: Cytotoxicity activity IC50 (50% inhibition of cell proliferation)
Procedure: as §1

[5] = tested on: MIAPaCa-2 (pancreas); test: In vitro cytotoxic activity (MTT) assay, MIAPaCa-2; assay type: cell-based; conditions: Homo sapiens, MIA PaCa-2; MIAPaCa-2 (pancreas) cells, exposed for 96 hours; read-out: Cytotoxicity activity IC50 (50% inhibition of cell proliferation)
Procedure: as §1

[6] = tested on: MCF7 (breast); test: In vitro cytotoxic activity (MTT) assay, MCF7; assay type: cell-based; conditions: Homo sapiens; MCF7 (breast) cells, exposed for 96 hours; read-out: Cytotoxicity activity IC50 (50% inhibition of cell proliferation)
Procedure: as §1

[7] = tested on: HCT116 (colon); test: In vitro cytotoxic activity (MTT) assay, HCT116; assay type: cell-based; conditions: Homo sapiens, HCT-116; HCT116 (colon) cells, exposed for 96 hours; read-out: Cytotoxicity activity IC50 (50% inhibition of cell proliferation)
Procedure: as §1

[8] = tested on: H1299 (lung); test: In vitro cytotoxic activity (MTT) assay, H1299; assay type: cell-based; conditions: Homo sapiens, NCI-H1299; H1299 (lung) cells, exposed for 96 hours; read-out: Cytotoxicity activity IC50 (50% inhibition of cell proliferation)
Procedure: as §1

[9] = biological target: T1, recombinant human CK2 (RRBB-holoenzyme) (Homo sapiens, UniProt P68400); test: CK2 Kinase Assay (33P-ATP, filter plate); assay type: biochemical; conditions: final ATP concentration 15 μM, 10 min at 30° C., eight concentrations; read-out: protein kinase CK2 inhibition IC50
T1 construct: purchased Millipore
T1 sequence (P68400 whole entry): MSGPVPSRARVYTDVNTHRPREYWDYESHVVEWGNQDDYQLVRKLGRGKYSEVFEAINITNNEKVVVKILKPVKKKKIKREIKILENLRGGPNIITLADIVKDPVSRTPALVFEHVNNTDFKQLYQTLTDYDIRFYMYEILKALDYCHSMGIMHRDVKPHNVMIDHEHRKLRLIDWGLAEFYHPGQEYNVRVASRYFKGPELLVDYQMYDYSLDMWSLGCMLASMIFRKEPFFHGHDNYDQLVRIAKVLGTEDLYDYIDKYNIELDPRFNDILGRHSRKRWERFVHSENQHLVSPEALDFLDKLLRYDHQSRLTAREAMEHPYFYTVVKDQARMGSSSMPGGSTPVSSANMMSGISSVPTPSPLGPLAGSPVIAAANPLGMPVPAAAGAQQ
T1 sequence (P67870 whole entry partner): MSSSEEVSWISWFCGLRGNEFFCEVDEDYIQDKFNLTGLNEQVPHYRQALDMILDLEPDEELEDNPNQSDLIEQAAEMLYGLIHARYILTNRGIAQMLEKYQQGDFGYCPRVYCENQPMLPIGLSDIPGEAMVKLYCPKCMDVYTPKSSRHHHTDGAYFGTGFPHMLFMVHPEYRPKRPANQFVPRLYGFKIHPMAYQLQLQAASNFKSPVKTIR
Procedure: CK2 Kinase Assay was conducted using the protocol as described in Pierre F. et al; J. Med. Chem. 2011, 54, 635-654. The tested compounds in aqueous solution were added at a volume of 10 μL to a reaction mixture comprising 10 μL of assay dilution buffer (ADB; 20 mM MOPS, pH 7.2, 25 mM β-glycerol phosphate, 5 mM EGTA, 1 mM sodium orthovanadate, and 1 mM dithiothreitol), 10 μL of substrate peptide (RRRDDDSDDD, dissolved in ADB at a concentration of 1 mM), 10 μL of recombinant human CK2 (RRBB-holoenzyme, 25 ng dissolved in ADB; Millipore). Reactions were initiated by the addition of 10 μL of ATP solution (90% 75 mMMgCl2, 75 μM ATP (final ATP concentration: 15 μM) dissolved in ADB; 10% [Y-33P] ATP (stock 1 mCi/100 μL; 3000 Ci/mmol (Perkin-Elmer) and maintained for 10 min at 30° C. The reactions were quenched with 100 μL of 0.75% phosphoric acid and then transferred to and filtered through a phosphor cellulose filter plate (Millipore). After washing each well five times with 0.75% phosphoric acid, the plate was dried under vacuum for 5 min and, following the addition of 15 μL of scintillation fluid to each well, the residual radioactivity was measured using a Wallac luminescence counter. The IC50 values were derived from eight concentrations of test inhibitors.

O=C(O)c1cnn2c1nc(Nc1cccc(Cl)c1)c1ccncc12 [Compound 1, 5-((3-chlorophenyl)amino)pyrazolo[1,5-a]pyrido[4,3-e]pyrimidine-3-carboxylic acid]
pIC50 [1]: 5.36
pIC50 [2]: 5.68
pIC50 [3]: 5.37
pIC50 [4]: 5.41
pIC50 [5]: 5.96
pIC50 [6]: 5.28
pIC50 [7]: 5.72
pIC50 [8]: 5.80
pIC50 [9]: 7.02

Source: US12012407B1, “Pyrazolo[1,5-a]pyrido[4,3-e]pyrimidine-3-carboxylic acids as CK2 inhibitors” (KING FAISAL UNIVERSITY, priority 2024, dated 2024)
